Data from ChEMBL document CHEMBL1201862, “PubChem BioAssay data set” (2004).
Activity calls are given as the source filed them.

Experiments:
[1] = molecular target: Voltage-gated inwardly rectifying potassium channel KCNH2 (Homo sapiens, UniProt Q12809); assay: hERG protection from proarrhythmic block, potency, dose response, cell-based, thallium flux (AID 2121); format: ADME
[2] = cells; format: functional, cell-based
[3] = molecular target: T1, Nuclear receptor subfamily 0 group B member 1 (Homo sapiens, UniProt P51843); format: functional, cell-based;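 further: HEK293T cells transfected with SF-1 and DAX-1 plus StAR promoter luciferase reporter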
T1 sequence (P51843 whole entry): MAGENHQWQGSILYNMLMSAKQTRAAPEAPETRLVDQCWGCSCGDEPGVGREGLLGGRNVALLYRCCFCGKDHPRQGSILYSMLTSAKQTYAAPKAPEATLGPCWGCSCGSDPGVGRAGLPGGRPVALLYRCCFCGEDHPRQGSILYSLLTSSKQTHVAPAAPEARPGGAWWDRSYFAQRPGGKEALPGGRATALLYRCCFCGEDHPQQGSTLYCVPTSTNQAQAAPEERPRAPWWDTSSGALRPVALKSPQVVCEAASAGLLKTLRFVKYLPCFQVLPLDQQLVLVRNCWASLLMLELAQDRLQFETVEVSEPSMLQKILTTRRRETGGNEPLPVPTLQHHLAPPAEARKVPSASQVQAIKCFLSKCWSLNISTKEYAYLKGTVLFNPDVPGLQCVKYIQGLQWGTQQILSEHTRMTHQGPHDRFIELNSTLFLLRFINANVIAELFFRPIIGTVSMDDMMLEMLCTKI

[4] = molecular target: Major prion protein (Homo sapiens, UniProt P04156); format: functional, cell-based
[5] = cells
[6] = molecular target: Diphosphomevalonate decarboxylase (Streptococcus pneumoniae serotype 2 (strain D39 / NCTC 7466), UniProt Q9FD53); assay: S. pneumoniae DPM-DC inhibition retest, confirmation, biochemical, cuvette format, coupled NADH fluorescence (AID 1028); format: functional
[7] = molecular target: Protein Tat (Human immunodeficiency virus type 1 group M subtype B (isolate HXB2)(HIV-1), UniProt P04608); format: functional;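 further: tat binding to TAR RNA read out by fluorescence polarization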
[8] = Vero cell cytotoxicity, dose response, cytotoxicity control for Vif-APOBEC3G degradation inhibitor project, Vero cells (AID 1117358); format: functional; details: Human immunodeficiency virus 1, Vero
[9] = HeLa 2N DNA content increase, dose response, cell-based, IC50 (AID 1117349); format: functional
[10] = Concentration-dependent survival of SW480 colon cancer line, luminescence detection with CellTiter-Glo, half-maximal inhibitory concentration (AID 1117338); format: functional
[11] = RKO cell viability reduction, dose response, CellTiter-Glo luminescence (AID 1117322); format: functional
[12] = cytotoxicity toward HCT116 cells – cell-based, CellTiter-Glo luminescence, IC50, dose response (AID 1117332); format: functional; details: HCT-116
[13] = SNU-C1 cell viability reduction, dose response, CellTiter-Glo luminescence (AID 1117323); format: functional, cell-based
[14] = cytotoxicity toward Colo320 cells – cell-based, CellTiter-Glo luminescence, IC50, dose response (AID 1117334); format: functional; details: COLO 320
[15] = HeLa 4N DNA content increase, dose response, cell-based, IC50 (AID 1117351); format: functional
[16] = cytotoxicity toward HT-29 cells – cell-based, CellTiter-Glo luminescence, IC50, dose response (AID 1117330); format: functional
[17] = CellTiter-Glo luminescent dose response of DLD-1 viability loss (AID 1117352); format: functional
[18] = HCT116 cell viability decrease, GSK3B pretreatment – CellTiter-Glo, IC50, dose response (AID 1117339); format: functional; details: HCT-116
[19] = molecular target: E3 ubiquitin-protein ligase UHRF1 (Homo sapiens, UniProt Q96T88); assay: Counterscreen for inhibitors of 5-meCpG-binding domain protein 2 (MBD2): TRFRET-based biochemical high throughput dose response assay to identify inhibitors of binding of ubiquitin-like with PHD and ring finger domains 1 (UHRF1) to methylated oligonucleotide.
[20] = molecular target: Ubiquitin carboxyl-terminal hydrolase BAP1 (Homo sapiens, UniProt Q92560); assay: BAP1 deubiquitinase inhibitors, dose response, biochemical (AID 714); format: functional

## O=C(COc1ccc2ccccc2c1Br)Nc1cccnc1
[1]
  EC50: 0.24 µM (active)
[2]
  IC50: > 67.5 µM (inactive)
[3]
  IC50: > 67.5 µM (inactive)
[4]
  IC50: 5.81 µM (active)
[5]
  IC50: > 138 µM (inactive)

## CCCNC(=O)c1ccccc1-n1sc2ccccc2c1=O
[6]
  IC50: 31.3 µM (active)

## CN1CCc2nc3ccc(Cl)cc3c(-c3ccccc3Cl)c2C1
[7]
  IC50: > 100 µM (active)
[8]
  CC50: > 40 µM (active)

## Cc1nc2ccc(CN(C)c3ccc(C(=O)N[C@@H](CCC(=O)O)C(=O)O)s3)cc2c(=O)[nH]1
[9]
  IC50: > 10 µM (inactive)
[10]
  IC50: 0.001 µM (active)
[11]
  IC50: 0.00288 µM (active)
[12]
  IC50: 0.00424 µM (active)
[13]
  IC50: > 20 µM (inactive)
[14]
  IC50: > 20 µM (inactive)
[15]
  IC50: > 10 µM (inactive)
[16]
  IC50: > 20 µM (inactive)
[17]
  IC50: > 20 µM (inactive)
[18]
  IC50: 0.0023 µM (active)

## CC(=O)Nc1sc2c(c1-c1nc3ccccc3s1)CCN(C)C2
[19]
  IC50: 25.7 µM (inactive)

## CCCCn1c2c(c3ccccc31)CCc1nonc1-2
[20]
  IC50: > 50 µM (not active)
